Values joined by “and” are separate entries in the source; they are usually repeats but may differ in a detail not shown here. Equal values may be shown once. Where a name gives a salt, the structure may show the parent alone.
Target: T1, P2X7 (Homo sapiens, UniProt Q99572)
T1 sequence (Q99572 1-595): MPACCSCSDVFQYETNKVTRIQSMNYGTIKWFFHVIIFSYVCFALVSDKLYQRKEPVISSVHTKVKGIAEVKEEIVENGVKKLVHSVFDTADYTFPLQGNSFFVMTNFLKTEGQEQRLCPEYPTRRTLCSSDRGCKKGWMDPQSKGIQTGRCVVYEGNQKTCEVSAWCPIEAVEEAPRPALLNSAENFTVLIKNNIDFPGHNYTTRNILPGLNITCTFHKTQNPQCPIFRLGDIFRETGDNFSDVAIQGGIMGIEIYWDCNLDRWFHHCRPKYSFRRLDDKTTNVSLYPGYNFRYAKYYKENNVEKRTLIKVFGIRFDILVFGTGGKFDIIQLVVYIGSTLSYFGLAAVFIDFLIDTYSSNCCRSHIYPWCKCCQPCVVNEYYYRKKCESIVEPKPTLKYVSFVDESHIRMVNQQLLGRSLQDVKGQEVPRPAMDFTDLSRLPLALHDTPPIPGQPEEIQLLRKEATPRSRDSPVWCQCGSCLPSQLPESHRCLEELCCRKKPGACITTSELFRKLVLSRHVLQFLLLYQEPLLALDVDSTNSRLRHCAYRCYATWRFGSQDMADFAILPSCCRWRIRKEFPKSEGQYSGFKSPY
Test: YO-PRO-1 dye uptake assay in U373 cells stably expressing P2X7
Type: cell-based
Design: The complete open reading frame of human P2X7 was amplified from Incyte clone 148057; expressed in transfected cells
Conditions: dye uptake through P2X7, U373 cells, 300 μM BzATP, 5 μM YO-PRO-1, test compounds 30 nM to 3 μM; read-out: IC50
Experimental: Following a 24-hr exposure to DNA, cells were trypsinized and re-seeded at low density in the presence of […] G418. After incubation for 2 weeks, isolated clones were selected with cloning cylinders and replated in […] G418. Cell clones were then expanded. Clones were screened for P2X7 by applying ATP and recording the resultant current using patch clamp electrophysiology.
U373 cells stably expressing P2X7 were used to screen drugs via a dye uptake assay. Cells were plated overnight on collagen coated 96-well plates at a density of 35,000 cells per well. The following day, culture media was replaced with Mg^++ and Ca^++-free Hank's balanced salt solution and various concentrations of test compounds ranging from 30 nM to 3 μM. Cells were then allowed to incubate with test compounds at 37° C. for 20 minutes. Following this incubation period YO-PRO-1 dye (Molecular Probes, Eugene, Oreg., final concentration 5 μM) and 2′-& 3′-O-(4-Benzolybenzoyl)-Adenosine 5′-triphosphate (Sigma Chemical, St Louis, Mo., final concentration 300 μM) were added to the cells sequentially. Cells were then incubated at 37° C. for 1.5 hours. […] Fluorescence in the presence of test substances was compared to that in the absence of test substances (control).

Cc1ccc([C@H]2NC(NCc3ccc(F)cc3)=N[C@H]2c2ccc(C)cc2)cc1 [[cis-4,5-bis-(4-Methylphenyl)-4,5-dihydro-1H-imidazol-2-yl]-(4-fluorobenzyl)amine hydrochloride]
IC50: 287 nM

Cc1ccc(CC2=N[C@@H](c3ccccc3)[C@@H](c3ccccc3)N2)cc1F [trifluoroacetate]
IC50: 178 nM

Brc1cccc(CNC2=N[C@@H](c3ccccc3)[C@@H](c3ccccc3)N2)c1 [cis-4,5-diphenyl-2-(3-bromobenzyl)amino-4,5-dihydro-1H-imidazole]
IC50: 225 nM

CC(OCC1=N[C@@](C)(c2ccccc2)[C@@H](c2ccccc2)N1)C1CC1 (relative stereo) [2-[(1-Cyclopropyl-1-ethoxy)methyl]-cis-4,5-diphenyl-4-methyl-4,5-dihydro-1H-imidazole trifluoroacetate]
IC50: 397 nM

Cc1ccccc1[C@H]1NC(NCc2ccc(F)c(F)c2)=N[C@H]1c1ccccc1C [[cis-4,5-bis-(2-Methylphenyl)-4,5-dihydro-1H-imidazol-2-yl]-(3,4-difluorobenzyl)-amine hydrochloride]
IC50: 77 nM

c1ccc([C@H]2NC(C3(c4ccccc4)CC3)=N[C@H]2c2ccccc2)cc1 [trifluoroacetate]
IC50: 334 nM

Fc1cccc([C@H]2NC(Cc3cccc(Cl)c3)=N[C@H]2c2cccc(F)c2)c1 [2-(3-Chlorobenzyl)-cis-4,5-bis-(3-fluorophenyl)-4,5-dihydro-1H-imidazole trifluoroacetate]
IC50: 330 nM

C[C@@]1(c2cccc(F)c2)N=C(Cc2ccc(F)cc2)N[C@@H]1c1cccc(F)c1 (relative stereo) [2-(4-Fluorobenzyl)-cis-4,5-bis-(3-fluorophenyl)-4-methyl-4,5-dihydro-1H-imidazole trifluoroacetate]
IC50: 32 nM

c1ccc([C@H]2NC(COC3CCCCCC3)=N[C@H]2c2ccccc2)cc1 [2-[(Cycloheptyloxy)methyl]-cis-4,5-diphenyl-4,5-dihydro-1H-imidazole trifluoroacetate]
IC50: 603 nM

Fc1ccc(CC2=N[C@@H](c3cccc(F)c3)[C@@H](c3cccc(F)c3)N2)cc1 [2-(4-Fluorobenzyl)-cis-4,5-bis-(3-fluorophenyl)-4,5-dihydro-1H-imidazole trifluoroacetate]
IC50: 217 nM

CC(C1=N[C@@H](c2ccccc2)[C@@H](c2ccccc2)N1)c1ccc(Cl)cc1 (relative stereo) [trifluoroacetate]
IC50: 423 nM

Fc1cccc(Cl)c1CC1=N[C@@H](c2ccccc2)[C@@H](c2ccccc2)N1 [trifluoroacetate]
IC50: 826 nM

C#CC(CCC)OCC1=N[C@@](C)(c2ccccc2)[C@@H](c2ccccc2)N1 (relative stereo) [2-[(1-Ethynyl-1-butoxy)methyl]-cis-4,5-diphenyl-4-methyl-4,5-dihydro-1H-imidazole hydrochloride]
IC50: 739 nM

Fc1ccc(CSC2=N[C@@H](c3ccccc3)[C@@H](c3ccccc3)N2)c(Cl)c1 [2-[(2-Chloro-4-fluorobenzyl)thio]-cis-4,5-diphenyl-4,5-dihydro-1H-imidazole hydrochloride]
IC50: 828 nM

Cc1ccccc1[C@H]1NC(NCc2ccccc2)=N[C@H]1c1ccccc1C [[cis-4,5-bis-(2-Methylphenyl)-4,5-dihydro-1H-imidazol-2-yl]-benzylamine hydrochloride]
IC50: 167 nM

OC(CC1=N[C@@H](c2ccccc2)[C@@H](c2ccccc2)N1)c1ccccc1 (stereo partly drawn) [2-(cis-4,5-diphenyl-4,5-dihydro-1H-imidazol-2-yl)-1-phenylethan-1-ol]
IC50: 195 nM

Clc1ccc(CNC2=N[C@@H](c3ccccc3)[C@@H](c3ccccc3)N2)cc1Cl [cis-4,5-diphenyl-2-(3,4-dichlorobenzyl)amino-4,5-dihydro-1H-imidazole]
IC50: 307 nM

Fc1ccc(CNC2=N[C@@H](c3ccccc3)[C@@H](c3ccccc3)N2)cc1 [(cis-4,5-Diphenyl-4,5-dihydro-1H-imidazol-2-yl)-(4-fluorobenzyl)amine hydrochloride]
IC50: 96 nM

c1ccc(CSC2=N[C@@H](c3ccccc3)[C@@H](c3ccccc3)N2)cc1 [cis-4,5-diphenyl-2-benzylthio-4,5-dihydro-1H-imidazole]
IC50: 214 nM

Fc1cccc([C@H]2NC(Cc3ccc(F)c(F)c3)=N[C@H]2c2cccc(F)c2)c1 [2-(3,4-Difluorobenzyl)-cis-4,5-bis-(3-fluorophenyl)-4,5-dihydro-1H-imidazole trifluoroacetate]
IC50: 79 nM

c1ccc(C2N=C(C3Cc4ccccc4C3)NC2c2ccccc2)cc1 (stereo not shown) [2-indan-2-yl-4,5-diphenyl-4,5-dihydro-1H-imidazole trifluoroacetate]
IC50: 50 nM

Clc1cccc(CCC2=N[C@H](c3ccccc3)[C@H](c3ccccc3)N2)c1 [2-[2-(3-Chlorophenyl)ethyl]-cis-4,5-diphenyl-4,5-dihydro-1H-imidazole trifluoroacetate]
IC50: 120 nM

Clc1ccc([C@H]2NC(NCc3ccccc3)=N[C@H]2c2ccc(Cl)cc2)cc1 [[cis-4,5-bis-(4-Chlorophenyl)-4,5-dihydro-1H-imidazol-2-yl]-benzylamine hydrochloride]
IC50: 404 nM

c1ccc([C@H]2NC(COC3CCCCCCC3)=N[C@H]2c2ccccc2)cc1 [2-[(Cyclooctyloxy)methyl]-cis-4,5-diphenyl-4,5-dihydro-1H-imidazole trifluoroacetate]
IC50: 506 nM

Fc1ccc(CNC2=N[C@@H](c3ccccc3F)[C@@H](c3ccccc3F)N2)cc1F [[cis-4,5-bis-(2-Fluorophenyl)-4,5-dihydro-1H-imidazol-2-yl]-(3,4-difluorobenzyl)-amine hydrochloride]
IC50: 312 nM

Cc1ccc(CC2=N[C@H](c3ccccc3)[C@H](c3ccccc3)N2)cc1 [cis-4,5-diphenyl-2-(4-methylbenzyl)-4,5-dihydro-1H-imidazole]
IC50: 83 nM and 80 nM

Fc1ccc(CCC2=N[C@H](c3ccccc3)[C@H](c3ccccc3)N2)cc1F [2-[2-(3,4-Difluorophenyl)ethyl]-cis-4,5-diphenyl-4,5-dihydro-1H-imidazole]
IC50: 122 nM

COc1cccc(CSC2=N[C@@H](c3ccccc3)[C@@H](c3ccccc3)N2)c1 [2-[(3-Methoxybenzyl)thio]-cis-4,5-diphenyl-4,5-dihydro-1H-imidazole hydrochloride]
IC50: 987 nM

Clc1ccc(CC2=N[C@@H](c3ccccc3)[C@@H](c3ccccc3)N2)cc1 [cis-4,5-diphenyl-2-(4-chlorobenzyl)-4,5-dihydro-1H-imidazole]
IC50: 269 nM and 270 nM

Fc1ccc(CNC2=N[C@@H](c3ccccc3)[C@@H](c3ccccc3)N2)cc1F [cis-4,5-diphenyl-2-[(3,4-difluorobenzyl)amino]-4,5-dihydro-1H-imidazole]
IC50: 65 nM

Fc1ccc(CNC2=N[C@@H](c3ccccc3)[C@@H](c3ccccc3)N2)c(F)c1 [cis-4,5-diphenyl-2-(2,4-difluorobenzyl)amino-4,5-dihydro-1H-imidazole]
IC50: 289 nM

C[C@]1(c2ccccc2)N=C(Cc2cccc(Cl)c2)N[C@H]1c1ccccc1 (relative stereo) [2-(3-Chlorobenzyl)-cis-4,5-diphenyl-4-methyl-4,5-dihydro-1H-imidazole trifluoroacetate]
IC50: 42 nM

Cc1ccccc1CCC1=N[C@@H](c2cccc(F)c2)[C@@H](c2cccc(F)c2)N1 [2-[2-(2-Methylphenyl)ethyl]-cis-4,5-bis-(3-fluorophenyl)-4,5-dihydro-1H-imidazole trifluoroacetate]
IC50: 94 nM

Cc1cccc([C@H]2NC(NCc3cccc(F)c3)=N[C@H]2c2cccc(C)c2)c1 [[cis-4,5-bis-(3-Methylphenyl)-4,5-dihydro-1H-imidazol-2-yl]-(3-fluorobenzyl)amine hydrochloride]
IC50: 121 nM

c1ccc(C(CC2=N[C@@H](c3ccccc3)[C@@H](c3ccccc3)N2)c2ccccc2)cc1 [2-[2,2-diphenylethyl]-cis-4,5-diphenyl-4,5-dihydro-1H-imidazole trifluoroacetate]
IC50: 320 nM

c1ccc(CCC2=N[C@@H](c3ccccc3)[C@@H](c3cccnc3)N2)cc1 (relative stereo) [ditrifluoroacetate]
IC50: 251 nM

Fc1cccc(CSC2=N[C@@H](c3ccccc3)[C@@H](c3ccccc3)N2)c1 [cis-4,5-diphenyl-2-(3-fluorobenzyl)thio-4,5-dihydro-1H-imidazole]
IC50: 240 nM
